# Results: article PMC6440464 (PeerJ, 2019)
# Values joined by “and” are separate entries in the source; they are usually repeats but may differ in a detail not shown here. Equal entries are not always repeated.
# Test: Stability of the analytes in rat plasma QC samples at different storage conditions
# Type: in vitro ADME
# Details: for Post-preparation stability (4℃ for 24 h) Measured Conc.: extracted plasma samples in auto sampler rack; for Post-preparation stability (4℃ for 24 h) Measured Conc. / Free-thaw stability (3 free-thaw cycles) Measured Conc. / Long-term stability (-80℃ for 15 d) Measured Conc. / Short-term stability (25℃ for 12 h) Measured Conc.: n=5; for Free-thaw stability, Test Conc., AV / Free-thaw stability, Test Conc. / Post-preparation stability, Test Conc., AV / Post-preparation stability, Test Conc. / Short-term stability, Test Conc., AV / Short-term stability, Test Conc. / Long-term stability, Test Conc., AV / Long-term stability, Test Conc.: plasma; for Free-thaw stability, Test Conc., AV / Free-thaw stability, Test Conc.: 3 free-thaw cycles; for Free-thaw stability, Test Conc., AV / Post-preparation stability, Test Conc., AV / Short-term stability, Test Conc., AV / Long-term stability, Test Conc., AV: AV of 5 replicates; for Free-thaw stability, Test Conc. / Post-preparation stability, Test Conc. / Short-term stability, Test Conc. / Long-term stability, Test Conc.: single replicates NO.1-NO.5, listed as Isoquercitrin (IQ); for Post-preparation stability, Test Conc., AV / Post-preparation stability, Test Conc.: 4℃ for 24 h; for Short-term stability, Test Conc., AV / Short-term stability, Test Conc.: 25℃ for 12 h; for Long-term stability, Test Conc., AV / Long-term stability, Test Conc.: -80℃ for 15 d; for Free-thaw stability (3 free-thaw cycles) Measured Conc. / Long-term stability (-80℃ for 15 d) Measured Conc. / Short-term stability (25℃ for 12 h) Measured Conc.: rat plasma
# Procedure: The stabilities of Qr, IQ, and QG in plasma were assessed by analyzing QC samples at different storage conditions. The stabilities of three flavonoids in plasma were studied by analyzing three concentration levels of QC samples (n = 5) at room temperature (25 °C) for 12 h, at long-term storage (−80 °C for 15 days), after three freeze (−80 °C) and thaw (room temperature) cycles, and at auto sampler rack storage (4 °C for 24 h).
# [1] = high QC, nominal 8400.0 (Qr), 976.0 (IQ), 10000.0 (QG) ng/mL
# [2] = low QC, nominal 65.6 (Qr), 48.8 (IQ), 100.0 (QG) ng/mL
# [3] = medium QC, nominal 525.0 (Qr), 244.0 (IQ), 1000.0 (QG) ng/mL
structure (smiles),measurement,setting,value
"O=c1c(O[C@@H]2O[C@H](CO)[C@@H](O)[C@H](O)[C@H]2O)c(-c2ccc(O)c(O)c2)oc2cc(O)cc(O)c12 [IQ, Isoquercitrin]",Post-preparation stability (4℃ for 24 h) Measured Conc.,[1],937.6 ± 55.4 ng/mL
same,Post-preparation stability (4℃ for 24 h) Measured Conc.,[2],45.3 ± 1.4 ng/mL
same,Post-preparation stability (4℃ for 24 h) Measured Conc.,,255.6 ± 16.0 ng/mL
same,"Free-thaw stability, Test Conc., AV",nominal Conc. 48.80 ng/mL,50.35 ng/mL
same,"Free-thaw stability, Test Conc.",nominal Conc. 48.80 ng/mL,49.95 ng/mL and 49.90 ng/mL and 50.70 ng/mL and 48.08 ng/mL and 53.12 ng/mL
same,"Free-thaw stability, Test Conc., AV",nominal Conc. 244.00 ng/mL,242.47 ng/mL
same,"Free-thaw stability, Test Conc.",nominal Conc. 244.00 ng/mL,230.75 ng/mL and 211.89 ng/mL and 256.83 ng/mL and 252.00 ng/mL and 260.86 ng/mL
same,"Free-thaw stability, Test Conc., AV",nominal Conc. 976.00 ng/mL,1028.98 ng/mL
same,"Free-thaw stability, Test Conc.",nominal Conc. 976.00 ng/mL,934.23 ng/mL and 1056.62 ng/mL and 1064.04 ng/mL and 1091.46 ng/mL and 998.55 ng/mL
same,"Post-preparation stability, Test Conc., AV",nominal Conc. 48.80 ng/mL,45.28 ng/mL
same,"Post-preparation stability, Test Conc.",nominal Conc. 48.80 ng/mL,45.29 ng/mL and 43.89 ng/mL and 47.57 ng/mL and 44.33 ng/mL and 45.34 ng/mL
same,"Post-preparation stability, Test Conc., AV",nominal Conc. 244.00 ng/mL,255.64 ng/mL
same,"Post-preparation stability, Test Conc.",nominal Conc. 244.00 ng/mL,246.59 ng/mL and 233.24 ng/mL and 257.98 ng/mL and 268.81 ng/mL and 271.60 ng/mL
same,"Post-preparation stability, Test Conc., AV",nominal Conc. 976.00 ng/mL,937.62 ng/mL
same,"Post-preparation stability, Test Conc.",nominal Conc. 976.00 ng/mL,857.22 ng/mL and 1007.33 ng/mL and 922.61 ng/mL and 936.47 ng/mL and 964.48 ng/mL
same,"Short-term stability, Test Conc., AV",nominal Conc. 48.80 ng/mL,51.25 ng/mL
same,"Short-term stability, Test Conc.",nominal Conc. 48.80 ng/mL,51.42 ng/mL and 50.11 ng/mL and 53.70 ng/mL and 49.73 ng/mL and 51.28 ng/mL
same,"Short-term stability, Test Conc., AV",nominal Conc. 244.00 ng/mL,228.97 ng/mL
same,"Short-term stability, Test Conc.",nominal Conc. 244.00 ng/mL,224.99 ng/mL and 229.24 ng/mL and 227.58 ng/mL and 250.98 ng/mL and 212.08 ng/mL
same,"Short-term stability, Test Conc., AV",nominal Conc. 976.00 ng/mL,902.68 ng/mL
same,"Short-term stability, Test Conc.",nominal Conc. 976.00 ng/mL,885.52 ng/mL and 865.13 ng/mL and 936.37 ng/mL and 947.50 ng/mL and 878.89 ng/mL
same,"Long-term stability, Test Conc., AV",nominal Conc. 48.80 ng/mL,43.53 ng/mL
same,"Long-term stability, Test Conc.",nominal Conc. 48.80 ng/mL,40.64 ng/mL and 40.98 ng/mL and 46.59 ng/mL and 45.84 ng/mL and 43.59 ng/mL
same,"Long-term stability, Test Conc., AV",nominal Conc. 244.00 ng/mL,226.97 ng/mL
same,"Long-term stability, Test Conc.",nominal Conc. 244.00 ng/mL,232.85 ng/mL and 226.55 ng/mL and 237.44 ng/mL and 224.60 ng/mL and 213.40 ng/mL
same,"Long-term stability, Test Conc., AV",nominal Conc. 976.00 ng/mL,947.77 ng/mL
same,"Long-term stability, Test Conc.",nominal Conc. 976.00 ng/mL,1047.44 ng/mL and 988.88 ng/mL and 924.76 ng/mL and 931.40 ng/mL and 846.39 ng/mL
same,Free-thaw stability (3 free-thaw cycles) Measured Conc.,[1],1029.0 ± 62.9 ng/mL
same,Long-term stability (-80℃ for 15 d) Measured Conc.,[1],947.8 ± 75.3 ng/mL
same,Short-term stability (25℃ for 12 h) Measured Conc.,[1],902.7 ± 36.8 ng/mL
same,Free-thaw stability (3 free-thaw cycles) Measured Conc.,[2],50.4 ± 1.8 ng/mL
same,Long-term stability (-80℃ for 15 d) Measured Conc.,[2],43.5 ± 2.7 ng/mL
same,Short-term stability (25℃ for 12 h) Measured Conc.,[2],51.3 ± 1.6 ng/mL
same,Free-thaw stability (3 free-thaw cycles) Measured Conc.,[3],242.5 ± 20.7 ng/mL
same,Long-term stability (-80℃ for 15 d) Measured Conc.,[3],227.0 ± 9.1 ng/mL
same,Short-term stability (25℃ for 12 h) Measured Conc.,[3],229.0 ± 14.0 ng/mL
